Measurements: patent US20110015068A1, “Herbicidal Compositions Comprising Pyroxasulfone V” (BASF SE, priority 2008, published 2011)

What was measured:
Type in all cases: in vivo
Chenopodium album [1] = assay: post-emergence greenhouse test, CHEAL
Source text: (§1) For the post-emergence treatment, the test plants were first grown to a height of 3 to 20 cm, depending on the plant habit, and only then treated. Here, the herbicidal compositions were suspended or emulsified in water as distribution medium and sprayed using finely distributing nozzles.
(§2) The respective herbicides A and/or safener were formulated as 10% by weight strength suspension concentrate and introduced to the spray liquor with the amount of solvent system used for applying the active compound. Herbicide B and/or safener were used as commercially available formulations and introduced to the spray liquor with the amount of solvent system used for applying the active compound. In the examples, the solvent used was water.
(§3) The test period extended over 21 days. During this time, the plants were tended, and their response to the treatments with active compound was evaluated.
(§4) The evaluation for the damage caused by the chemical compositions was carried out using a scale from 0 to 100%, compared to the untreated control plants. Here, 0 means no damage and 100 means complete destruction of the plants.

Digitaria sanguinalis = assay: post-emergence greenhouse test, DIGSA; conditions: 3.13 g ai/ha, 20 DAT, Table 4
Source text: as §1, §2, §3, §4

Setaria faberii [2] = assay: post-emergence greenhouse test, SETFA; conditions: 12.5 g ai/ha, 20 DAT, Table 4
Source text: as §1, §2, §3, §4

Lolium multiflorum = assay: post-emergence greenhouse test, LOLMU; conditions: 12.5 g ai/ha, 20 DAT, Table 4
Source text: as §1, §2, §3, §4

Galium aparine [3] = assay: post-emergence greenhouse test, GALAP
Source text: as §1, §2, §3, §4

Matricaria inermis [4] = assay: post-emergence greenhouse test, MATIN; conditions: 6.25 g ai/ha, 20 DAT, Table 4
Source text: as §1, §2, §3, §4

Sorghum halepense [5] = assay: post-emergence greenhouse test, SORHA; conditions: 1.6 g ai/ha
Source text: as §1, §2, §3, §4

Ipomoea purpurea = assay: pre-emergence greenhouse test, PHBPU
Source text: (§5) For the pre-emergence treatment, directly after sowing the active compounds, which had been suspended or emulsified in water, were applied by means of finely distributed nozzles. The containers were irrigated gently to promote germination and growth and subsequently covered with transparent plastic hoods until plant had rooted. This cover caused uniform germination of the tests plants, unless this was adversely affected by active compounds.
as §2, §3, §4

Polygonum convolvulus = assay: post-emergence greenhouse test, POLCO
Source text: as §1, §2, §3, §4

Setaria italica [6] = assay: pre-emergence greenhouse test, SETIT; conditions: 25 g ai/ha
Source text: as §5, §2, §3, §4

Xanthium strumarium = assay: post-emergence greenhouse test, XANST
Source text: as §1, §2, §3, §4

Echinochloa crus-galli = assay: post-emergence greenhouse test, ECHCG
Source text: as §1, §2, §3, §4

Galium aparine [7] = assay: pre-emergence greenhouse test, GALAP; conditions: 3.13 g ai/ha
Source text: as §5, §2, §3, §4

Alopecurus myosuroides [8] = assay: pre-emergence greenhouse test, ALOMY; conditions: 12.5 g ai/ha
Source text: as §5, §2, §3, §4

Chenopodium album [9] = assay: pre-emergence greenhouse test, CHEAL; conditions: 3.13 g ai/ha
Source text: as §5, §2, §3, §4

Kochia scoparia [10] = assay: post-emergence greenhouse test, KCHSC; conditions: 6.25 g ai/ha
Source text: as §1, §2, §3, §4

Solanum nigrum = assay: post-emergence greenhouse test, SOLNI; conditions: 13 g ai/ha
Source text: as §1, §2, §3, §4

Setaria italica [11] = assay: post-emergence greenhouse test, SETIT
Source text: as §1, §2, §3, §4

Matricaria inermis [12] = assay: pre-emergence greenhouse test, MATIN; conditions: 6.25 g ai/ha
Source text: as §5, §2, §3, §4

Setaria faberii [13] = assay: pre-emergence greenhouse test, SETFA
Source text: as §5, §2, §3, §4

Sorghum halepense [14] = assay: pre-emergence greenhouse test, SORHA; conditions: 3.13 g ai/ha
Source text: as §5, §2, §3, §4

Alopecurus myosuroides [15] = assay: post-emergence greenhouse test, ALOMY
Source text: as §1, §2, §3, §4

Bromus inermis = assay: pre-emergence greenhouse test, BROIN; conditions: 3.13 g ai/ha
Source text: as §5, §2, §3, §4

Setaria lutescens = assay: post-emergence greenhouse test, SETLU; conditions: 1.6 g ai/ha
Source text: as §1, §2, §3, §4

Kochia scoparia [16] = assay: pre-emergence greenhouse test, KCHSC; conditions: 12.5 g ai/ha
Source text: as §5, §2, §3, §4

Ambrosia artemisifolia = assay: pre-emergence greenhouse test, AMBEL; conditions: 12.5 g ai/ha
Source text: as §5, §2, §3, §4

C#CCN1C(=O)C(F)(F)Oc2cc(F)c(-n3c(=O)n(C)c(=S)n(C)c3=O)cc21 [compound V-1]
observed activity in % destruction (Chenopodium album [1]; 6.25 g ai/ha, 20 DAT, Table 4): 60%
observed activity in % destruction (Digitaria sanguinalis): 35%
observed activity in % destruction (Setaria faberii [2]): 70%
observed activity in % destruction (Lolium multiflorum): 85%
observed activity in % destruction (Galium aparine [3]; 3.13 g ai/ha, 20 DAT, Table 4): 30%
observed activity in % destruction (Matricaria inermis [4]): 90%

CC(C)N(C)S(=O)(=O)NC(=O)c1cc(-n2c(=O)cc(C(F)(F)F)n(C)c2=O)c(F)cc1Cl [saflufenacil]
observed % activity (Sorghum halepense [5]; 8 DAT): 20%
observed % activity (Sorghum halepense [5]; 20 DAT): 35%
observed % activity (Chenopodium album [1]; 6.25 g ai/ha, 8 DAT): 35%
observed % activity (Chenopodium album [1]; 6.25 g ai/ha, 20 DAT): 35%
observed % activity (Chenopodium album [1]; 13 g ai/ha, 8 DAT): 45%
observed % activity (Chenopodium album [1]; 13 g ai/ha, 20 DAT): 35%
observed % activity (Ipomoea purpurea; 3.13 g ai/ha, 8 DAT): 45%
observed % activity (Ipomoea purpurea; 3.13 g ai/ha, 20 DAT): 50%
observed % activity (Ipomoea purpurea; 6.25 g ai/ha, 8 DAT): 80%
observed % activity (Ipomoea purpurea; 6.25 g ai/ha, 20 DAT): 80%
observed % activity (Polygonum convolvulus; 1.6 g ai/ha, 8 DAT): 35%
observed % activity (Polygonum convolvulus; 1.6 g ai/ha, 20 DAT): 30%
observed % activity (Polygonum convolvulus; 13 g ai/ha, 8 DAT): 95%
observed % activity (Polygonum convolvulus; 13 g ai/ha, 20 DAT): 98%
observed % activity (Setaria italica [6]; 8 DAT): 40%
observed % activity (Setaria italica [6]; 20 DAT): 55%
observed % activity (Xanthium strumarium; 1.6 g ai/ha, 8 DAT): 35%
observed % activity (Xanthium strumarium; 1.6 g ai/ha, 20 DAT): 45%
observed % activity (Xanthium strumarium; 3.1 g ai/ha, 8 DAT): 70%
observed % activity (Xanthium strumarium; 3.1 g ai/ha, 20 DAT): 75%
observed % activity (Xanthium strumarium; 6.25 g ai/ha, 8 DAT): 70%
observed % activity (Xanthium strumarium; 6.25 g ai/ha, 20 DAT): 80%
observed % activity (Echinochloa crus-galli; 1.6 g ai/ha, 8 DAT): 10%
observed % activity (Echinochloa crus-galli; 1.6 g ai/ha, 20 DAT): 0%
observed % activity (Echinochloa crus-galli; 6.25 g ai/ha, 8 DAT): 10%
observed % activity (Echinochloa crus-galli; 6.25 g ai/ha, 20 DAT): 0%
observed % activity (Echinochloa crus-galli; 13 g ai/ha, 8 DAT): 15%
observed % activity (Echinochloa crus-galli; 13 g ai/ha, 20 DAT): 0%
observed % activity (Galium aparine [7]; 8 DAT): 40%
observed % activity (Galium aparine [7]; 20 DAT): 40%
observed % activity (Alopecurus myosuroides [8]; 8 DAT): 30%
observed % activity (Alopecurus myosuroides [8]; 20 DAT): 30%
observed % activity (Chenopodium album [9]; 8 DAT): 75%
observed % activity (Chenopodium album [9]; 20 DAT): 60%
observed % activity (Kochia scoparia [10]; 8 DAT): 60%
observed % activity (Kochia scoparia [10]; 20 DAT): 30%
observed % activity (Solanum nigrum; 8 DAT): 85%
observed % activity (Solanum nigrum; 20 DAT): 85%
observed % activity (Setaria italica [11]; 3.1 g ai/ha, 8 DAT): 30%
observed % activity (Setaria italica [11]; 3.1 g ai/ha, 20 DAT): 15%
observed % activity (Setaria italica [11]; 6.25 g ai/ha, 8 DAT): 30%
observed % activity (Setaria italica [11]; 6.25 g ai/ha, 20 DAT): 20%
observed % activity (Matricaria inermis [12]; 8 DAT): 95%
observed % activity (Matricaria inermis [12]; 20 DAT): 98%
observed % activity (Setaria faberii [13]; 6.25 g ai/ha, 8 DAT): 0%
observed % activity (Setaria faberii [13]; 6.25 g ai/ha, 20 DAT): 35%
observed % activity (Setaria faberii [13]; 12.5 g ai/ha, 8 DAT): 20%
observed % activity (Setaria faberii [13]; 12.5 g ai/ha, 20 DAT): 35%
observed % activity (Sorghum halepense [14]; 8 DAT): 0%
observed % activity (Sorghum halepense [14]; 20 DAT): 0%
observed % activity (Alopecurus myosuroides [15]; 1.6 g ai/ha, 8 DAT): 0%
observed % activity (Alopecurus myosuroides [15]; 1.6 g ai/ha, 20 DAT): 0%
observed % activity (Alopecurus myosuroides [15]; 6.25 g ai/ha, 8 DAT): 20%
observed % activity (Alopecurus myosuroides [15]; 6.25 g ai/ha, 20 DAT): 0%
observed % activity (Alopecurus myosuroides [15]; 13 g ai/ha, 8 DAT): 35%
observed % activity (Alopecurus myosuroides [15]; 13 g ai/ha, 20 DAT): 15%
observed % activity (Galium aparine [3]; 1.6 g ai/ha, 8 DAT): 15%
observed % activity (Galium aparine [3]; 1.6 g ai/ha, 20 DAT): 20%
observed % activity (Galium aparine [3]; 3.1 g ai/ha, 8 DAT): 25%
observed % activity (Galium aparine [3]; 3.1 g ai/ha, 20 DAT): 20%
observed % activity (Galium aparine [3]; 6.25 g ai/ha, 8 DAT): 35%
observed % activity (Galium aparine [3]; 6.25 g ai/ha, 20 DAT): 30%
observed % activity (Galium aparine [3]; 13 g ai/ha, 8 DAT): 80%
observed % activity (Galium aparine [3]; 13 g ai/ha, 20 DAT): 70%
observed % activity (Bromus inermis; 8 DAT): 0%
observed % activity (Bromus inermis; 20 DAT): 0%
observed % activity (Setaria lutescens; 8 DAT): 30%
observed % activity (Setaria lutescens; 20 DAT): 10%
observed % activity (Kochia scoparia [16]; 8 DAT): 75%
observed % activity (Kochia scoparia [16]; 20 DAT): 80%
observed % activity (Ambrosia artemisifolia; 8 DAT): 70%
observed % activity (Ambrosia artemisifolia; 20 DAT): 80%
